Experimental data as given in patent publication US20180273531A1, “PYRIMIDINE COMPOUND AND MEDICAL USE THEREOF” (Japan Tobacco Inc., priority 2004, published 2018).

How the values were obtained:
Assay type in all cases: cell-based
[1] = tested on: Renal cancer cell line ACHN cell; assay: Growth inhibitory effect against cancer cell lines (3H-thymidine uptake), ACHN; settings: Homo sapiens, ACHN
Method: (§1) Renal cancer cell line ACHN cell or colorectal cancer cell line HT-29 cells were cultured in a 96 well plate at 1.0×10^4 cells/90 μL/well for 24 hrs, then a test substance dissolved in DMSO (dimethyl sulfoxide) was added. After 18 hrs, ^3H-thymidine (0.25 μCi/well) was added and the cells were cultured for 6 hrs. Using a cell harvester, the cells were recovered on a UniFilter-96 GF/B glass filter and the ^3H radioactivity uptaken by the cells was measured by TopCount (Packard). As a control, DMSO was used and the activity of the test substance was expressed in the concentration (IC50) necessary for inhibiting ^3H radioactivity uptaken by the cell to 50% of that of the control group. The measurements were made in triplicate.

[2] = tested on: colorectal cancer cell line HT-29 cells; assay: Growth inhibitory effect against cancer cell lines (3H-thymidine uptake), HT-29; settings: Homo sapiens, HT-29, inhibition of 3H-thymidine uptake; test substance 18 hrs, then 3H-thymidine 6 hrs; triplicate
Method: as §1

p15 protein = assay: Evaluation of p15 induction activity (Western blotting); settings: test substance 0.1 μM, 24 hrs, ACHN cells or HT-29 cells, compared to DMSO, n=2
Method: ACHN cells or HT-29 cells were cultured in a 6 well plate at 2.5×10^5 cells/1.8 mL/well for 24 hrs, then a test substance (0.1 μM) dissolved in DMSO was added. After 24 hrs, cells were detached using trypsin-EDTA (ethylene diamine tetraacetic acid) and solubilized with NuPAGE LDS sample buffer (Invitrogen). Using an RC DC protein assay kit (BIO-RAD), the protein concentration of the sample was quantitated, and a sample in an amount corresponding to 10 μg of BSA (bovine serum albumin) was analyzed by Western blotting using an anti-p15 antibody. The density of the band stained with the anti-p15 antibody was measured by a densitometer to quantify the amount of p15 protein. As a control, DMSO was used and the test was performed with n=2 and the average protein amount was determined.

IC50 [1] | IC50 [2] | SMILES | fold induction at 0.1 µM (p15 protein)
10 to 100 nM | < 10 nM | C#Cc1ccc(Nc2c3c(=O)n(CC)c(=O)n(-c4cccc(NS(=O)(=O)CC)c4)c3c(C)c(=O)n2C)c(F)c1 [Example 4-40] | –
10 to 100 nM | < 10 nM | CCn1c(=O)c2c(Nc3ccc(I)cc3F)n(C)c(=O)c(C)c2n(-c2cccc(NS(=O)(=O)CC)c2)c1=O [Example 4-19] | –
100 to 1000 nM | 10 to 100 nM | C#Cc1ccc(Nc2c3c(=O)n(C4CC4)c(=O)n(-c4cccc(NC(C)=O)c4)c3c(C)c(=O)n2CC)c(F)c1 [Example 4-46] | –
10 to 100 nM | < 10 nM | CCc1ccc(Nc2c3c(=O)n(C4CC4)c(=O)n(-c4cccc(NS(C)(=O)=O)c4)c3c(C)c(=O)n2C)c(F)c1 [Example 4-25] | –
100 to 1000 nM | 10 to 100 nM | Cc1c(=O)n(C)c(Nc2ccc(I)cc2F)c2c(=O)n(C3CC3)c(=O)n(-c3cccc(NC(=O)NCCO)c3)c12 [Example 4-95] | –
100 to 1000 nM | 10 to 100 nM | Cc1c(=O)n(C)c(Nc2ccc(I)cc2F)c2c(=O)n(C3CC3)c(=O)n(-c3cccc(NC(=O)c4cccn4C)c3)c12 [Example 4-87] | –
– | 10 to 100 nM | Cc1ccc(Nc2cc(=O)n(C)c3c2c(=O)n(C2CC2)c(=O)n3-c2ccccc2)c(F)c1 [Example 1-168] | ≥ 1.5
100 to 1000 nM | 10 to 100 nM | Cn1c(=O)cc(Nc2ccc(Br)cc2)c2c(=O)n(C3CC3)c(=O)n(-c3cccc(NS(C)(=O)=O)c3)c21 [Example 1-304] | –
100 to 1000 nM | 10 to 100 nM | Cn1c(=O)cc(Nc2ccc3sccc3c2F)c2c(=O)n(C3CC3)c(=O)n(-c3ccccc3)c21 [Example 1-343] | –
100 to 1000 nM | 10 to 100 nM | CCC(=O)Nc1cccc(-n2c(=O)n(C3CC3)c(=O)c3c(Nc4ccc(Br)cc4F)cc(=O)n(C)c32)c1 [Example 1-278] | –
100 to 1000 nM | 10 to 100 nM | Cc1c(=O)n(C)c(Nc2ccc(Br)cc2F)c2c(=O)n(C3CC3)c(=O)n(-c3ccc([N+](=O)[O-])cc3)c12 [Example 4-5] | –
100 to 1000 nM | 10 to 100 nM | CCc1ccc(Nc2c3c(=O)n(CC)c(=O)n(-c4cccc(NS(C)(=O)=O)c4)c3c(C)c(=O)n2C)c(F)c1 [Example 4-44] | –
– | 100 to 1000 nM | Cn1c(=O)cc(Nc2ccc(Cl)cc2Cl)c2c(=O)n(C3CC3)c(=O)n(-c3ccccc3)c21 [Example 1-163] | ≥ 1.5
100 to 1000 nM | – | CCc1ccc(Nc2c3c(=O)n(C4CC4)c(=O)n(-c4cccc(NC(C)=O)c4)c3c(C)c(=O)n2CC)c(F)c1 [Example 4-47] | –
100 to 1000 nM | 10 to 100 nM | Cc1c(=O)n(C)c(Nc2ccc(I)cc2F)c2c(=O)n(C3CC3)c(=O)n(-c3cccc(NS(=O)(=O)N(CCO)C(=O)NCCO)c3)c12 [Example 4-96] | –
10 to 100 nM | < 10 nM | CCn1c(=O)c2c(Nc3ccc(I)cc3F)n(C)c(=O)c(C)c2n(-c2cccc(NS(C)(=O)=O)c2)c1=O [Example 4-20] | –
– | 100 to 1000 nM | CCn1c(=O)c2c(Nc3ccc(Br)cc3)cc(=O)n(C)c2n(-c2ccccc2C)c1=O [Example 1-111] | ≥ 1.5
– | 100 to 1000 nM | CN(C)c1ccc(Nc2cc(=O)n(C)c3c2c(=O)n(C2CC2)c(=O)n3-c2ccc(F)cc2)cc1 [Example 1-132] | ≥ 1.5
– | 100 to 1000 nM | Cc1cc(Br)ccc1Nc1cc(=O)n(C)c2c1c(=O)n(C1CC1)c(=O)n2-c1ccccc1 [Example 1-156] | ≥ 1.5
– | 100 to 1000 nM | COc1ccc(-n2c(=O)n(C3CC3)c(=O)c3c(Nc4ccc(Br)cc4)cc(=O)n(C)c32)cc1 [Example 1-183] | ≥ 1.5
– | 100 to 1000 nM | Cn1ccc2cc(Nc3cc(=O)n(C)c4c3c(=O)n(C3CC3)c(=O)n4-c3ccccc3)ccc21 [Example 1-138] | ≥ 1.5
100 to 1000 nM | – | Cn1c(=O)cc(Nc2ccc(Br)cc2F)c2c(=O)n(C3CC3)c(=O)n(-c3cccc(NS(=O)(=O)CCN4CCOCC4)c3)c21 [Example 1-339] | –
– | 100 to 1000 nM | Cn1c(=O)cc(Nc2ccc3[nH]ccc3c2)c2c(=O)n(C3CC3)c(=O)n(-c3ccccc3)c21 [Example 1-165] | ≥ 1.5
– | 100 to 1000 nM | Cc1ccc(-n2c(=O)n(C3CC3)c(=O)c3c(Nc4ccc(N(C)C)cc4)cc(=O)n(C)c32)cc1 [Example 1-126] | ≥ 1.5
– | 10 to 100 nM | COc1ccccc1-n1c(=O)n(C2CC2)c(=O)c2c(Nc3ccc(Br)cc3F)cc(=O)n(C)c21 [Example 1-166] | ≥ 1.5
– | – | Cc1cc(Nc2cc(=O)n(C)c3c2c(=O)n(C2CC2)c(=O)n3-c2ccccc2)ccc1Br [Example 1-157] | ≥ 1.5
– | – | COc1ccc(Nc2cc(=O)n(C)c3c2c(=O)n(C2CC2)c(=O)n3-c2ccccc2)c(C)c1 [Example 1-154] | ≥ 1.5

IC50 [1] | IC50 [2] | SMILES | fold induction at 0.1 µM (p15 protein)
– | – | CCn1c(=O)c2c(Nc3ccc(N(C)C)cc3)cc(=O)n(C)c2n(-c2ccccc2C)c1=O [Example 1-110] | ≥ 1.5
– | – | Cn1c(=O)cc(Nc2ccc3c(c2)OCO3)c2c(=O)n(-c3ccccc3)c(=O)n(-c3ccccc3)c21 [Example 1-16] | ≥ 1.5
– | 100 to 1000 nM | Cc1cccc(-n2c(=O)n(C3CC3)c(=O)c3c(Nc4ccc(N(C)C)cc4)cc(=O)n(C)c32)c1 [Example 1-127] | ≥ 1.5
– | – | Cn1c(=O)cc(Nc2ccc(F)cc2)c2c(=O)n(-c3ccccc3)c(=O)n(-c3ccccc3)c21 [Example 1-8] | ≥ 1.5
– | – | Cn1c(=O)cc(Nc2ccccc2F)c2c(=O)n(C3CC3)c(=O)n(-c3ccccc3)c21 [Example 1-173] | ≥ 1.5
– | – | CCNc1ccc(Nc2cc(=O)n(C)c3c2c(=O)n(C2CC2)c(=O)n3-c2ccccc2)cc1 [Example 1-137] | ≥ 1.5
– | – | CCNc1ccc(Nc2cc(=O)n(C)c3c2c(=O)n(-c2ccccc2)c(=O)n3-c2ccccc2)cc1 [Example 1-65] | ≥ 1.5
– | – | Cn1c(=O)cc(NCC(C)(C)C)c2c(=O)n(-c3ccccc3)c(=O)n(-c3ccccc3)c21 [Example 1-36] | ≥ 1.5
– | – | Cn1c(=O)cc(Nc2ccc(F)cc2F)c2c(=O)n(C3CC3)c(=O)n(-c3ccccc3)c21 [Example 1-162] | ≥ 1.5
– | 100 to 1000 nM | CCn1c(=O)c2c(Nc3ccc(Br)cc3)cc(=O)n(C)c2n(-c2ccccc2)c1=O [Example 1-96] | ≥ 1.5
– | 100 to 1000 nM | CCn1c(=O)c2c(Nc3ccc(Br)cc3)cc(=O)n(C)c2n(-c2ccccc2F)c1=O [Example 1-116] | ≥ 1.5
– | – | Cn1c(=O)cc(Nc2ccc(O)cc2)c2c(=O)n(C3CC3)c(=O)n(-c3ccccc3)c21 [Example 1-172] | ≥ 1.5
– | – | Cn1c(=O)cc(Nc2ccccc2)c2c(=O)n(-c3ccccc3)c(=O)n(-c3ccccc3)c21 [Example 1-12] | ≥ 1.5
– | – | COc1ccc(Nc2cc(=O)n(C)c3c2c(=O)n(C2CC2)c(=O)n3-c2ccccc2)c(OC)c1 [Example 1-146] | ≥ 1.5
– | 100 to 1000 nM | Cn1c(=O)cc(Nc2ccc(Br)c(F)c2)c2c(=O)n(C3CC3)c(=O)n(-c3ccccc3)c21 [Example 1-151] | ≥ 1.5
– | – | CCn1c(=O)c2c(Nc3ccc(Cl)cc3)cc(=O)n(C)c2n(-c2ccccc2C)c1=O [Example 1-109] | ≥ 1.5
– | 100 to 1000 nM | CC1CC1n1c(=O)c2c(Nc3ccc(Br)cc3)cc(=O)n(C)c2n(-c2ccccc2)c1=O (centres unmarked) [Example 1-153] | ≥ 1.5
– | 100 to 1000 nM | CN(C)c1ccc(Nc2cc(=O)n(C)c3c2c(=O)n(C2CC2)c(=O)n3-c2cccc(F)c2)cc1 [Example 1-133] | ≥ 1.5
– | 100 to 1000 nM | CNc1ccc(Nc2cc(=O)n(C)c3c2c(=O)n(C2CC2)c(=O)n3-c2ccccc2)cc1 [Example 1-136] | ≥ 1.5
– | – | Cc1ccccc1-n1c(=O)n(CC(F)(F)F)c(=O)c2c(Nc3ccc(Br)cc3)cc(=O)n(C)c21 [Example 1-108] | ≥ 1.5
10 to 100 nM | – | CNS(=O)(=O)c1cccc(-n2c(=O)n(C3CC3)c(=O)c3c(Nc4ccc(Br)cc4F)cc(=O)n(C)c32)c1 [Example 1-294] | –
– | – | Cn1c(=O)cc(Nc2ccc(N)cc2)c2c(=O)n(-c3ccccc3)c(=O)n(-c3ccccc3)c21 [Example 1-46] | ≥ 1.5
– | – | CCn1ccc2cc(Nc3cc(=O)n(C)c4c3c(=O)n(C3CC3)c(=O)n4-c3ccccc3)ccc21 [Example 1-167] | ≥ 1.5
– | 100 to 1000 nM | CCn1c(=O)c2c(Nc3ccc(N(C)C)cc3)cc(=O)n(C)c2n(-c2ccccc2F)c1=O [Example 1-117] | ≥ 1.5
– | 100 to 1000 nM | CN(C)c1ccc(Nc2cc(=O)n(C)c3c2c(=O)n(C2CC2)c(=O)n3-c2ccccc2)cc1F [Example 1-143] | ≥ 1.5
100 to 1000 nM | – | CCc1ccc(Nc2c3c(=O)n(C4CC4)c(=O)n(-c4cccc(NS(C)(=O)=O)c4)c3c(C)c(=O)n2CC)c(F)c1 [Example 4-39] | –
– | – | Cn1c(=O)cc(Nc2ccc(Cl)cc2)c2c(=O)n(C3CCCC3)c(=O)n(-c3ccccc3)c21 [Example 1-80] | ≥ 1.5
